# Columns and labels:
# Format in all cases: in vivo
# [1] = system: Amaranthus retoflexus (AMARE); assay: Post-emergence herbicidal glasshouse test, AMARE; parameters: dose or concentration left out as unconfirmed; details: evaluated after 13 days, five-point scale
# Description: (§1) Seeds of a variety of test species are sown in standard soil in pots (Lolium perenne (LOLPE), Amaranthus retoflexus (AMARE), Abutilon theophrasti (ABUTH), Setaria faberi (SETFA), Echinochloa crus-galli (ECHCG), Ipomoea hederacea (IPOHE)). After cultivation for one day (pre-emergence) or after 8 days cultivation (post-emergence) under controlled conditions in a glasshouse (at 24/16° C., day/night; 14 hours light; 65% humidity), the plants are sprayed with an aqueous spray solution derived from the formulation of the technical active ingredient in acetone/water (50:50) solution containing 0.5% Tween 20 (polyoxyethelyene sorbitan monolaurate, CAS RN 9005-64-5). Compounds are applied at 125 g/h unless otherwise indicated. The test plants are then grown in a glasshouse under controlled conditions in a glasshouse (at 24/16° C., day/night; 14 hours light; 65% humidity) and watered twice daily. After 13 days for pre and post-emergence, the test is evaluated for the percentage damage caused to the plant. The biological activities are shown in the following table on a five-point scale (5=80-100%; 4=60-79%; 3=40-59%; 2=20-39%; 1=0-19%). “—” denotes not tested on this species or data not captured.
# Setaria faberi (SETFA) [2] = assay: Post-emergence herbicidal glasshouse test, SETFA; details: 125 g/h, evaluated after 13 days, five-point scale
# Description: as §1
# [3] = system: Echinochloa crus-galli (ECHCG); assay: Post-emergence herbicidal glasshouse test, ECHCG; details: 125 g/h, evaluated after 13 days, five-point scale
# Description: as §1
# [4] = system: Ipomoea hederacea (IPOHE); assay: Post-emergence herbicidal glasshouse test, IPOHE; details: 125 g/h, evaluated after 13 days, five-point scale
# Description: as §1
# [5] = system: Amaranthus retoflexus (AMARE); assay: Pre-emergence herbicidal glasshouse test, AMARE; details: 125 g/h, evaluated after 13 days, five-point scale
# Description: as §1
# Setaria faberi (SETFA) [6] = assay: Pre-emergence herbicidal glasshouse test, SETFA; details: 125 g/h, evaluated after 13 days, five-point scale
# Description: as §1
# [7] = system: Echinochloa crus-galli (ECHCG); assay: Pre-emergence herbicidal glasshouse test, ECHCG; details: 125 g/h, evaluated after 13 days, five-point scale
# Description: as §1
# [8] = system: Ipomoea hederacea (IPOHE); assay: Pre-emergence herbicidal glasshouse test, IPOHE; details: 125 g/h, evaluated after 13 days, five-point scale
# Description: as §1
Compound,"percentage damage caused to the plant, POST Application AMARE [1]","percentage damage caused to the plant, POST Application SETFA (Setaria faberi (SETFA) [2])","percentage damage caused to the plant, POST Application ECHCG [3]","percentage damage caused to the plant, POST Application IPOHE [4]","percentage damage caused to the plant, PRE Application AMARE [5]","percentage damage caused to the plant, PRE Application SETFA (Setaria faberi (SETFA) [6])","percentage damage caused to the plant, PRE Application ECHCG [7]","percentage damage caused to the plant, PRE Application IPOHE [8]"
Cn1nnnc1NC(=O)c1ccc(OC(F)(F)F)c(NC(=O)OCC(F)F)c1Cl [Compound 1.011],4 (4=60-79%),5 (5=80-100%),5 (5=80-100%),4 (4=60-79%),5 (5=80-100%),5 (5=80-100%),5 (5=80-100%),4 (4=60-79%)
Cn1nnnc1NC(=O)c1ccc(OC(F)(F)F)c(NC(=O)OCCC#N)c1Cl [Compound 1.012],5 (5=80-100%),5 (5=80-100%),5 (5=80-100%),5 (5=80-100%),5 (5=80-100%),5 (5=80-100%),5 (5=80-100%),4 (4=60-79%)
Cn1nnnc1NC(=O)c1ccc(OC(F)(F)F)c(NC(=O)OCCS(C)(=O)=O)c1Cl [Compound 1.013],4 (4=60-79%),5 (5=80-100%),5 (5=80-100%),2 (2=20-39%),5 (5=80-100%),2 (2=20-39%),2 (2=20-39%),2 (2=20-39%)
Cn1nnnc1NC(=O)c1ccc(OC(F)F)c(NC(=O)OC2COC2)c1Cl [Compound 1.026],5 (5=80-100%),,5 (5=80-100%),5 (5=80-100%),5 (5=80-100%),3 (3=40-59%),5 (5=80-100%),4 (4=60-79%)
Cn1nnnc1NC(=O)c1ccc(OC(F)F)c(NC(=O)OCCS(C)(=O)=O)c1Cl [Compound 1.028],5 (5=80-100%),,2 (2=20-39%),3 (3=40-59%),5 (5=80-100%),1 (1=0-19%),3 (3=40-59%),2 (2=20-39%)
COC(=O)N(C)c1c(OC(F)(F)F)ccc(C(=O)Nc2nnnn2C)c1Cl [Compound 1.029],5 (5=80-100%),,5 (5=80-100%),5 (5=80-100%),5 (5=80-100%),5 (5=80-100%),5 (5=80-100%),5 (5=80-100%)
CCN(C(=O)OC)c1c(OC(F)(F)F)ccc(C(=O)Nc2nnnn2C)c1Cl [Compound 1.030],5 (5=80-100%),,5 (5=80-100%),5 (5=80-100%),5 (5=80-100%),5 (5=80-100%),5 (5=80-100%),4 (4=60-79%)

# Source: patent publication US12637437B2, “Herbicidal compounds” (SYNGENTA CROP PROTECTION AG, priority 2021, dated 2026)
